Source: ChEMBL document CHEMBL1201862, “PubChem BioAssay data set” (2004)
The source made the active and inactive calls.

Key:
[1] = biological target: Induced myeloid leukemia cell differentiation protein Mcl-1 (Homo sapiens, UniProt Q07820); assay: blockers of MCL1 binding to BIM peptide – biochemical, fluorescence polarization, BIM-BH3 peptide, 1536-well, dose response (AID 2217)
[2] = biological target: Bcl-2-like protein 1 (Homo sapiens, UniProt Q07817); assay: blockers of BCLXL peptide binding – biochemical, fluorescence polarization, 1536-well, selectivity assay for MCL1 inhibitor project, dose response (AID 2218)
[3] = NIH-3T3 fibroblast cytotoxicity, dose response, cytotoxicity control, cell-based, fluorescence, Alamar Blue, secondary assay (AID 2327); format: functional;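 further: NIH-3T3 mouse fibroblasts cultured with fluconazole at 8 µg/mL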
[4] = fluconazole-exposed Candida albicans growth modulators – fluorescence, retest, confirmation (AID 2467); format: functional, cell-based
[5] = biological target: T1, Sphingosine 1-phosphate receptor 4 (Homo sapiens, UniProt O95977); assay: Fluorescence dose response cell-based high throughput screening assay for antagonists of the Sphingosine 1-Phosphate Receptor 4 (S1P4). [Related pubchem assays: 1524 (Confirmation in triplicates.), 1510 (Primary screen.)]; format: functional
T1 sequence (O95977 whole entry): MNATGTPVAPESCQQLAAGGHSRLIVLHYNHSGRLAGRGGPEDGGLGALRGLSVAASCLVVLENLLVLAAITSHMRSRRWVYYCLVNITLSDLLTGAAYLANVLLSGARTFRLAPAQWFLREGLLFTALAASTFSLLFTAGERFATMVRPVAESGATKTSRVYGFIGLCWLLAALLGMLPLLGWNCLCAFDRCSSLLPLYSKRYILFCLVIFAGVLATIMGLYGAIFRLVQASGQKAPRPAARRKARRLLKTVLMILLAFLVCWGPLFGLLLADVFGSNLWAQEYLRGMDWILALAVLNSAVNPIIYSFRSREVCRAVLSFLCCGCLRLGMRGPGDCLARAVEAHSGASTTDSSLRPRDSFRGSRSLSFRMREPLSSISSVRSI

[6] = biological target: Sphingosine 1-phosphate receptor 1 (Homo sapiens, UniProt P21453); format: functional;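 further: Tango beta-arrestin reporter U2OS cells stimulated with S1P near its EC80; inhibitor potency meaning antagonism of receptor activation by the natural agonist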
[7] = biological target: T2, Heat shock factor protein 1 (Mus musculus, UniProt P38532); assay: enhancement of HSF1-driven luciferase signal – cell-based, NIH3T3, luminescence, dose retest, confirmation (AID 435004); format: functional;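 further: stress induced by proteasome inhibitor MG132 added 30 min after compound; luciferase reporter driven by HSF1 response element in NIH3T3 cells; actives raise luminescence as potentiators of the MG132 stress response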
T2 sequence (P38532 whole entry): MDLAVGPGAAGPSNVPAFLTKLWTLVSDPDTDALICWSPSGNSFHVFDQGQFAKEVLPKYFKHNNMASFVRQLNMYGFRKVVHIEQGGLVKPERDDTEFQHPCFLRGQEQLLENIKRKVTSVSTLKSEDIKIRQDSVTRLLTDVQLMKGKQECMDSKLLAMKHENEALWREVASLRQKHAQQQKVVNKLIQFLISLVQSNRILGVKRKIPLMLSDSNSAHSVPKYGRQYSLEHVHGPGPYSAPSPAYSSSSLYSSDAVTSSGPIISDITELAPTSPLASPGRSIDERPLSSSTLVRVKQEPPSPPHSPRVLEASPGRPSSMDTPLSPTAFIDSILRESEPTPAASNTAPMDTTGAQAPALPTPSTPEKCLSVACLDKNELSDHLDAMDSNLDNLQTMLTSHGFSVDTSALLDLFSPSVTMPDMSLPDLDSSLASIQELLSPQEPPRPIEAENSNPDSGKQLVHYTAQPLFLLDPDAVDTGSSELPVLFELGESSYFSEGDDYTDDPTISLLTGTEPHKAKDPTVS

[8] = biological target: T3, Replicative DNA helicase DnaB (Mycobacterium tuberculosis, UniProt P9WMR3); assay: DnaB intein splicing inhibitors, dose response, biochemical, cell-free fluorescence (AID 449749); format: functional
T3 sequence (P9WMR3 whole entry): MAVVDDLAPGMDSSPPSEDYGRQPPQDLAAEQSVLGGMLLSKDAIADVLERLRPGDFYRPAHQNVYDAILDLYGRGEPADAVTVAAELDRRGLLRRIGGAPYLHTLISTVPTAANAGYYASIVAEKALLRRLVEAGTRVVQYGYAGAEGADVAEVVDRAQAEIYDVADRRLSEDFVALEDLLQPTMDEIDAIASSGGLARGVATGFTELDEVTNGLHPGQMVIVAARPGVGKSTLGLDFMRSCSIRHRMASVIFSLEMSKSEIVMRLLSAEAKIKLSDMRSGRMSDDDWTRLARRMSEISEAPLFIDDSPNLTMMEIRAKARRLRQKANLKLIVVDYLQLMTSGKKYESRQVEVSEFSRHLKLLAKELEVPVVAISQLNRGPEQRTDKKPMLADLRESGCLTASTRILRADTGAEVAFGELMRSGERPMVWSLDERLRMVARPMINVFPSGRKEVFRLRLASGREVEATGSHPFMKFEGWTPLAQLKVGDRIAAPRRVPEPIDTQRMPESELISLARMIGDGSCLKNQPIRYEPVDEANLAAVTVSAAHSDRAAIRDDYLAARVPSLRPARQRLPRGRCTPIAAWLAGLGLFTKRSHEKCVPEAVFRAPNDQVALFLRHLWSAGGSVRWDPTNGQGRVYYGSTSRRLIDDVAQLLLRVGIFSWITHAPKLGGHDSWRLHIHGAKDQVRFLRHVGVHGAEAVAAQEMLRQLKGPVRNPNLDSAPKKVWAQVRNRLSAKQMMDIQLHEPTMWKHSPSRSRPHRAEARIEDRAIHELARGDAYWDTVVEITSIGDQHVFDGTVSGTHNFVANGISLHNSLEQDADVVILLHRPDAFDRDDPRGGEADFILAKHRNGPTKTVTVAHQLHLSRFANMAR

[9] = biological target: T4, Protein RecA (Mycobacterium tuberculosis, UniProt P9WHJ3); assay: Fluorescence Cell-Free Homogeneous Dose Retest to Identify Inhibitors of RecA-Intein Splicing Activity. [Related pubchem assays (depositor defined):AID2097, AID2223, AID489010, AID492950]; format: functional
T4 sequence (P9WHJ3 whole entry): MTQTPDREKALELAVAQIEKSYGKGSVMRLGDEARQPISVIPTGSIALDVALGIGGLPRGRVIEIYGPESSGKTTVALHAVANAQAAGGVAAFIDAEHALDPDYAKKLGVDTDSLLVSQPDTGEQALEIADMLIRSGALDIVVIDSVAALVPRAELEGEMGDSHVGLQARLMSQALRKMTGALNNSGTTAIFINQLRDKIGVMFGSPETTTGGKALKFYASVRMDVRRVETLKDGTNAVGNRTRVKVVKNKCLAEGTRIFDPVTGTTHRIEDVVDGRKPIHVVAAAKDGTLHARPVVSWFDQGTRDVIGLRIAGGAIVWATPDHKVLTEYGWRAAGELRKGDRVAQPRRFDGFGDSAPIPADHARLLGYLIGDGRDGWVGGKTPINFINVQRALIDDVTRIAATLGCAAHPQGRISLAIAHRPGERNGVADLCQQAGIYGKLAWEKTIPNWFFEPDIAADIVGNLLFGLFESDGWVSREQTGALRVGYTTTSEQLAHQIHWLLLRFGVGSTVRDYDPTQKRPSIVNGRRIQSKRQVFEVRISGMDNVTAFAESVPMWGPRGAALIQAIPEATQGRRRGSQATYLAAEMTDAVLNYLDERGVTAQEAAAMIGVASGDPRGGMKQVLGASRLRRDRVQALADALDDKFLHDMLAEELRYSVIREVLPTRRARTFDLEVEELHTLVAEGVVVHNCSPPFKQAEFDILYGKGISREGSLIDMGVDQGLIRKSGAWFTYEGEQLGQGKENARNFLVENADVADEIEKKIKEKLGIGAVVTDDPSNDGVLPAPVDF

[10] = biological target: Large T antigen (Simian virus 40, UniProt P03070); format: functional, Betapolyomavirus macacae;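 further: Confirmatory-stage PubChem screen for compounds that inhibit SV40 T antigen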
[11] = biological target: T5, Protein Tat (Human immunodeficiency virus type 1 group M subtype B (isolate HXB2)(HIV-1), UniProt P04608); format: functional;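 further: tat binding to TAR RNA read out by fluorescence polarization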
T5 sequence (P04608 whole entry): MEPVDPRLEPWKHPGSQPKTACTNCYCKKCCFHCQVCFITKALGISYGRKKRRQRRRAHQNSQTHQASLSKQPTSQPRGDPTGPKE

[12] = luciferase reporter signal suppression in cells – H4 neuroglioma cells, luminescence, dose response (AID 1990); format: functional, cell-based
[13] = system: Streptococcus sp. 'group A'; assay: Streptococcus pyogenes SK(-)GAS viability under kanamycin – luminescence, BacTiterGlo, confirmation, counter-screen for streptokinase expression inhibitor project, dose response (AID 1900); format: functional, organism-based
[14] = Luminescence Cell-Based Dose Response HTS to Identify Inhibitors of 5'UTR Stem-Loop Driven Prion Protein mRNA Translation in H4 Neuroglioblastoma Cells. [Related pubchem assays: 1827 (Project Summary), 1813 (Primary HTS)]; format: functional
[15] = alpha-synuclein stem-loop luciferase translation blockers – H4 neuroglioma cells, luminescence, confirmation (AID 1988); format: functional, cell-based
[16] = HPDE-C7 pancreatic duct cell viability loss – fluorescence, HTS (AID 430); format: functional, cell-based; settings: Homo sapiens
[17] = Trypanosoma cruzi growth suppression in host cells – NIH3T3 host cells, beta-gal luminescence, confirmation (AID 2044); format: functional, cell-based;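 further: intracellular parasites grown in NIH/3T3 mouse fibroblasts as host cells; luminescent beta-galactosidase reporter signal from transgenic T. cruzi replicating inside host cells; inhibitors lower the luminescence signal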
[18] = viability loss of HPDE-C7K cells – cell-based, fluorescence, HTS, primary screen (AID 431); format: functional; settings: Homo sapiens
[19] = viability of PTEN-deleted HCT116 cells – cell-based, HCT116 PTEN knockout, dose response (AID 1047); format: functional;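 further: HCT116 colon tumor cells with PTEN knocked out; cells exposed to compound for 60 hours before readout; potency for loss of cell viability measured by luminescence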
[20] = NIH3T3 cell viability loss – ATP luminescence, mouse fibroblasts, counter-screen, dose response (AID 2010); format: functional, cell-based;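 further: cells exposed to compound for about 90 hours before reading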
[21] = viability of HCT116 lacking mutant beta-catenin – cell-based, human colon tumor, dose response (AID 1045); format: functional;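 further: HCT116 colon tumor cells with beta catenin knocked out; cells exposed to compound for 60 hours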
[22] = system: Streptococcus; assay: GAS UMAA2166 growth inhibition – luminescence, BacTiterGlo, counter-screen for streptokinase expression inhibitor project, dose response (AID 1915); format: functional, organism-based;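 further: potency for reduction of bacterial viability or growth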
[23] = biological target: T6, Mannose-6-phosphate isomerase (Homo sapiens, UniProt P34949); assay: MPI inhibition at elevated mannose 6-phosphate – biochemical, fluorescence intensity, high mannose 6-phosphate, primary screen (AID 1220)
T6 sequence (P34949 whole entry): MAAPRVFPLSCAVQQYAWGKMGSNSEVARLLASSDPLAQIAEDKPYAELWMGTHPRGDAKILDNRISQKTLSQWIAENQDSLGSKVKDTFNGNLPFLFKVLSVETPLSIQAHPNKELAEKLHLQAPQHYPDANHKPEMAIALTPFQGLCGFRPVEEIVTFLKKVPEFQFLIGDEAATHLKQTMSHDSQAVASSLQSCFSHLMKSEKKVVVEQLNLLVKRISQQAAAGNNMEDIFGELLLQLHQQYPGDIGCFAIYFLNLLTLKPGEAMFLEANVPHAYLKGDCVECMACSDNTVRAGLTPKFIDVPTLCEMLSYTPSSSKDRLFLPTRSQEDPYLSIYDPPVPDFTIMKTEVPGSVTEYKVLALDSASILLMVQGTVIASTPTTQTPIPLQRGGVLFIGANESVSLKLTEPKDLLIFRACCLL

[24] = biological target: T7, Short transient receptor potential channel 4 (Mus musculus, UniProt Q9QUQ5); assay: block of DAMGO-driven TRPC4 calcium entry – cell-based, HEK293 TRPC4/mu-opioid, Fluo-4 calcium, dose response (AID 434942); format: functional;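 further: potency of inhibitors blocking the TRPC4 calcium response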
T7 sequence (Q9QUQ5 whole entry): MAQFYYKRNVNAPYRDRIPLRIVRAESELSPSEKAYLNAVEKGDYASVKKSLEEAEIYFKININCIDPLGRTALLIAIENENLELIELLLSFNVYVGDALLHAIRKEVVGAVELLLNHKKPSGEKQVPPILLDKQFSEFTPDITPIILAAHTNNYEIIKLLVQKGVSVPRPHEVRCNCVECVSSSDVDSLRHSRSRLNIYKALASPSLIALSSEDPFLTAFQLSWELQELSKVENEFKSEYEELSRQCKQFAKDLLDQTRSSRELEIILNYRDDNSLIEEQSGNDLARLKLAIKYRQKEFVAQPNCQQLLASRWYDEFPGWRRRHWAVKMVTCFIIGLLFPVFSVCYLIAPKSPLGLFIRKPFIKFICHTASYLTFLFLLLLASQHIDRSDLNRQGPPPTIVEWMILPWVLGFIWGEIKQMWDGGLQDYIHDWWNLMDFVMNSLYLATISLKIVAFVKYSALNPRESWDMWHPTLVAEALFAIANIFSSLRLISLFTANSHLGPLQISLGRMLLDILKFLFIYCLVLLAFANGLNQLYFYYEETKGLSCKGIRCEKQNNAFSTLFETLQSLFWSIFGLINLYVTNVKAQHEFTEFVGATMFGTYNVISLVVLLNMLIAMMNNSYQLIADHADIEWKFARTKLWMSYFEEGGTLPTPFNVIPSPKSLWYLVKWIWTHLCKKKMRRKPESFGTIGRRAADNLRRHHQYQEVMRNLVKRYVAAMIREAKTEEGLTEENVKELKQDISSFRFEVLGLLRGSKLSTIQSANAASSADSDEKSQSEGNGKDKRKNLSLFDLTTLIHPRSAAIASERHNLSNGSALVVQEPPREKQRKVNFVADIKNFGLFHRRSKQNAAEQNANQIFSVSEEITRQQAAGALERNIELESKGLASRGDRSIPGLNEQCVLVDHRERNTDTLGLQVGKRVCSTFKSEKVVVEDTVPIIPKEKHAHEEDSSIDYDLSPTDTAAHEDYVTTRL

[25] = biological target: Nonstructural protein 1 (Influenza A virus, UniProt Q194T2); format: functional, Influenza A virus (A/California/07/2009(H1N1))
[26] = biological target: Cytochrome P450 2C19 (Homo sapiens, UniProt P33261); assay: Cytochrome panel assay with activity outcomes. Panel member name: p450-cyp2c19 Compounds with AC50 equal or less than 10 uM are considered active; format: functional; settings: read-out: AC50
[27] = biological target: Heat shock protein HSP 90-alpha (Homo sapiens, UniProt P07900); format: functional, organism-based

Bcl-2-like protein 1, sequence (Q07817 whole entry): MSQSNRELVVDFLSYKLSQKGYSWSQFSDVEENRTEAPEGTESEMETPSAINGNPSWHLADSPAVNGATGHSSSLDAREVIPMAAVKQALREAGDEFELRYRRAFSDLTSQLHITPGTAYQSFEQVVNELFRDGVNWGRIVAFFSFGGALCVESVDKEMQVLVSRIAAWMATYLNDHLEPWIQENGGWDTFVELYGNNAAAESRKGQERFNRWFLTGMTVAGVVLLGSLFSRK
Induced myeloid leukemia cell differentiation protein Mcl-1, sequence (Q07820 whole entry): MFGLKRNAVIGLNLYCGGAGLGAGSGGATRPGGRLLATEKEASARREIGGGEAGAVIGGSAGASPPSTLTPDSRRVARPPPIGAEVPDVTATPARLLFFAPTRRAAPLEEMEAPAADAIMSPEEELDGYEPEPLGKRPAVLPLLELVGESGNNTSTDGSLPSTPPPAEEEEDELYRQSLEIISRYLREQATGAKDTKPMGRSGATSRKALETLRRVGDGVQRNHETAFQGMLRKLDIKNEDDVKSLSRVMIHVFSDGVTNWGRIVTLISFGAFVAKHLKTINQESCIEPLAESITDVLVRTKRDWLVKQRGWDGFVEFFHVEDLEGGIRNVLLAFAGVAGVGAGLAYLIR
Large T antigen, sequence (P03070 whole entry): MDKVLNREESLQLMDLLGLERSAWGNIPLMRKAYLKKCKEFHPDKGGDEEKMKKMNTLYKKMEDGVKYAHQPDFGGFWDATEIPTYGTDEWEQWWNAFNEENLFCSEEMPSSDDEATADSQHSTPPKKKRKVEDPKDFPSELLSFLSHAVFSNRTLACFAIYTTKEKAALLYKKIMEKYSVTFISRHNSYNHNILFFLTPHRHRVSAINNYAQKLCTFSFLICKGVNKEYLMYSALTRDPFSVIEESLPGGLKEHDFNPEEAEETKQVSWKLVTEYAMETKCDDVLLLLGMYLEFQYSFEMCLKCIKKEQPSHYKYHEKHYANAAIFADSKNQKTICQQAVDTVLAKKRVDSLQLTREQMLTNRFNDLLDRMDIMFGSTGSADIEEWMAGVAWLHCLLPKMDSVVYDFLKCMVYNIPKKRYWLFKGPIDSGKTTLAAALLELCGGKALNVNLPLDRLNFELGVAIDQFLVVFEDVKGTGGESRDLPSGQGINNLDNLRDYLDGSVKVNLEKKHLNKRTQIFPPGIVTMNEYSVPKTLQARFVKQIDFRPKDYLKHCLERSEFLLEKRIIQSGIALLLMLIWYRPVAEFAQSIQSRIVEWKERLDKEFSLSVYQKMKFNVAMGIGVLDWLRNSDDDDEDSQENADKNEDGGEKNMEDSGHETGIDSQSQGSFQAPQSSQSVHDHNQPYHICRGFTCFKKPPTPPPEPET
Cytochrome P450 2C19, sequence (P33261 whole entry): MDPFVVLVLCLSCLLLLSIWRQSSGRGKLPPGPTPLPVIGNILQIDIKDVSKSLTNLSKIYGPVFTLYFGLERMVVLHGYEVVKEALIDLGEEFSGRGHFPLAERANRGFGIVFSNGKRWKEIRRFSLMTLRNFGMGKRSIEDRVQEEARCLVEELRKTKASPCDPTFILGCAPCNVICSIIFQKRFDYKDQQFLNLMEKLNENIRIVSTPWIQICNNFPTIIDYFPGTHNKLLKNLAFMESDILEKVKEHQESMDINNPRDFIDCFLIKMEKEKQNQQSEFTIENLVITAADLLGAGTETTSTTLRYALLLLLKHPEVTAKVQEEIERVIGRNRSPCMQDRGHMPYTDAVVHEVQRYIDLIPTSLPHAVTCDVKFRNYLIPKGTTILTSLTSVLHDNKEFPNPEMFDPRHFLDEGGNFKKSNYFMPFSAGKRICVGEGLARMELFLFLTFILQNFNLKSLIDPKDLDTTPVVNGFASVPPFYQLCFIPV
Nonstructural protein 1, sequence (Q194T2 whole entry): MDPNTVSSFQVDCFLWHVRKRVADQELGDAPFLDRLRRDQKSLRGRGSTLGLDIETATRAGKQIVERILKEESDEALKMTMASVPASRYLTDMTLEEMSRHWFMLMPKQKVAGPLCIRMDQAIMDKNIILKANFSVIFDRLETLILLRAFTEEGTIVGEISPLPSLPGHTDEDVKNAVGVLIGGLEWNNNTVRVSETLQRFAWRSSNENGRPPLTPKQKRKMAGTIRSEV
Sphingosine 1-phosphate receptor 1, sequence (P21453 whole entry): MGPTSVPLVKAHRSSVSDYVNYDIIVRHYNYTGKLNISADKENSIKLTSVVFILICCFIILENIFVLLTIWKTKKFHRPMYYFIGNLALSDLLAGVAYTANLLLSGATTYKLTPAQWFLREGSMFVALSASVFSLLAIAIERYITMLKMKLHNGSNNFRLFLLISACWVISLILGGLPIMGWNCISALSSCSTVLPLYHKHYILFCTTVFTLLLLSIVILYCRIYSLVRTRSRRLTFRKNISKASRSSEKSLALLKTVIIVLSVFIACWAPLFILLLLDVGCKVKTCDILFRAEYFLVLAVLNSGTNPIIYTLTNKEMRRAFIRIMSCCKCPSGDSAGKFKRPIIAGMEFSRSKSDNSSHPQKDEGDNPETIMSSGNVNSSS

Cc1ccccc1OCC(=O)OCC(=O)Nc1ncc(Cl)c(C)c1Cl
15.7 µM (not active): IC50 [1]
30.4 µM (not active): IC50 [2]

COc1cccc(-n2nnnc2S(C)(=O)=O)c1
23.6 µM (not active): IC50 [6]
active: EC50 [4] 1.76 µM | IC50 [5] 1.26 µM | EC50 [7] 6.59 µM | AC50 [8] 3.14 µM | EC50 [9] 1.1 µM
inconclusive: EC50 [3] 3.96 µM

O=C1NC(=O)N(c2cccc(Cl)c2)C(=O)/C1=C\c1ccc(Sc2nc3ccccc3[nH]2)o1
active: IC50 [10] 66.2 µM | IC50 [1] 8.64 µM | IC50 [11] > 100 µM
> 12.1 µM (not active): IC50 [2]

Oc1c(CN2CCCCC2)cc(Br)c2cccnc12
active: EC50 [12] 5.98 µM | EC50 [13] 3.42 µM | EC50 [14] 1.63 µM | EC50 [15] 4.28 µM | EC50 [16] 7.75 µM | EC50 [17] 1.16 µM | EC50 [18] 10.4 µM | EC50 [19] 1.95 µM | EC50 [20] 6.38 µM | EC50 [21] 1.64 µM | EC50 [22] 10.7 µM | IC50 [23] 15 µM | EC50 [24] 4.22 µM | IC50 [25] 3.55 µM | AC50 [27] 6.04 µM
inconclusive: AC50 [26] 39.8 µM
